Test results published in paper PMC6151550, “Inhibitory Effect of Selaginellins from Selaginella tamariscina (Beauv.) Spring against Cytochrome P450 and Uridine 5′-Diphosphoglucuronosyltransferase Isoforms on Human Liver Microsomes” (Molecules : A Journal of Synthetic Chemistry and Natural …, 2017).
Where two headings read alike, the source gives them in different places.

What was measured:
Assay type in all cases: in vitro ADME
CYP2D6 = target: T1, CYP2D6 (Homo sapiens, UniProt P10635); assay: CYP2D6 inhibition (dextromethorphan O-demethylase) in human liver microsomes, substrate cocktail LC-MS/MS
T1 construct: the incubation mixtures containing pooled HLMs (0.25 mg/mL, H2630, Xenotech); tissue Xenotech H2630; host or cells: pooled human liver microsomes
Experimental: (§1) The inhibitory effects of two selaginellins on the metabolism of ten P450 probe substrates were evaluated using previously reported method with minor modification. Phenacetin O-deethylase, coumarin 7-hydroxylase, bupropion 4-hydroxylase, amodiaquine N-deethylase, tolbutamide 4-hydroxylase, omeprazole 5-hydroxylase, dextromethorphan O-demethylase, chlorzoxazone 6-hydroxylase and midazolam 1′-hydroxylase activities were determined as probe activities for CYP1A2, CYP2A6, CYP2B6, CYP2C8, CYP2C9, CYP2C19, CYP2D6, CYP2E1 and […], respectively, using substrate cocktail incubation and tandem mass spectrometry (Table 2). Selaginellins were dissolved in methanol. The final concentrations of organic solvent (methanol) for the cocktail incubation conditions in all experiments were 1.0% (v/v). In brief, the incubation mixtures containing pooled HLMs (0.25 mg/mL, H2630, Xenotech), P450 probe substrate cocktail, and inhibitor (0, 0.5, 2, 5, 20 and 50 μM) were preincubated at 37 °C for 5 min. […] After mixing and centrifugation, aliquots were analyzed by liquid chromatography-tandem mass spectrometry (LC-MS/MS) as previous described. The CYP2J2 inhibitory effects of two selaginellins were also evaluated in pooled HLMs using previously reported method. […]

CYP2C19 = target: T2, CYP2C19 (Homo sapiens, UniProt P33261); assay: CYP2C19 inhibition (omeprazole 5-hydroxylase) in human liver microsomes, substrate cocktail LC-MS/MS
T2 construct: the incubation mixtures containing pooled HLMs (0.25 mg/mL, H2630, Xenotech); tissue Xenotech H2630; host or cells: pooled human liver microsomes
Experimental: as §1

CYP3A = CYP3A inhibition (midazolam 1'-hydroxylase) in human liver microsomes, substrate cocktail LC-MS/MS
Experimental: as §1

UGT1A3 = target: T3, UGT1A3 (Homo sapiens, UniProt P35503); assay: UGT1A3 inhibition (chenodeoxycholic acid glucuronidation) in human liver microsomes, cocktail LC-MS/MS; conditions: IC50 UGT isoform 1A3, HLMs 0.25 mg/mL with alamethicin, chenodeoxycholic acid 2.0 μM
T3 construct: from tissue; host or cells: human liver microsomes
T3 sequence (P35503 29-534): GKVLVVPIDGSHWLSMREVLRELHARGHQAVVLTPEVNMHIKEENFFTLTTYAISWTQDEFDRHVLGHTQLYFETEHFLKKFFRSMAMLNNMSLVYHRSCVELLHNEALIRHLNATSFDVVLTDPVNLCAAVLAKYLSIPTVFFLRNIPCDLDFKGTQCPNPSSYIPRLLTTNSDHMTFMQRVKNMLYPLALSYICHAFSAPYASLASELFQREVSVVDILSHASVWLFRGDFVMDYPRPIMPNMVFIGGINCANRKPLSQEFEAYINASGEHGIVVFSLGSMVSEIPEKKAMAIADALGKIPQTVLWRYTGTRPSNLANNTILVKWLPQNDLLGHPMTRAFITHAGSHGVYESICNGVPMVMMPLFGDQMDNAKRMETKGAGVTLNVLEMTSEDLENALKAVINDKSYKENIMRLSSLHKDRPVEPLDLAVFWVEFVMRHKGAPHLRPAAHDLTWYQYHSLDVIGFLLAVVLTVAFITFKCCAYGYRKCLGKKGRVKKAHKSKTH
Experimental: The inhibitory effects of two selaginellins on the metabolism of six UGT probe substrates were evaluated using previously reported method with minor modification. In brief, HLMs (0.25 mg/mL) were activated by incubation in the presence of alamethicin (25 μg/mL) for 15 min on ice. After the addition of UGT isoform-selective substrates and selaginellins (0, 0.5, 2, 5, 20 and 50 μM) the final concentrations of organic solvent (methanol) for the cocktail incubation conditions were 1.0% (v/v). The incubation reaction mixtures were pre-incubated for 5 min. The reaction was initiated by the addition of 5 mM UDPGA and further incubated for 60 min. All reactions were terminated by adding ice-cold acetonitrile containing estrone glucuronide (IS). After mixing and centrifugation, aliquots were injected into a LC-MS/MS as described previously (Table 2). All microsomal incubations were performed in triplicate.
The IC50 values (concentration of the inhibitor causing 50% inhibition of the original enzyme activity) were calculated using WinNonlin software (Pharsight, Mountain View, CA, USA): percentage of control activity = 100 × [1 − (I/(I + IC50))], where I is the inhibitor concentration, and IC50 is the inflection point on the curve.

CYP2A6 = target: T4, CYP2A6 (Homo sapiens, UniProt P11509); assay: CYP2A6 inhibition (coumarin 7-hydroxylase) in human liver microsomes, substrate cocktail LC-MS/MS
T4 construct: the incubation mixtures containing pooled HLMs (0.25 mg/mL, H2630, Xenotech); tissue Xenotech H2630; host or cells: pooled human liver microsomes
T4 sequence (P11509 1-494): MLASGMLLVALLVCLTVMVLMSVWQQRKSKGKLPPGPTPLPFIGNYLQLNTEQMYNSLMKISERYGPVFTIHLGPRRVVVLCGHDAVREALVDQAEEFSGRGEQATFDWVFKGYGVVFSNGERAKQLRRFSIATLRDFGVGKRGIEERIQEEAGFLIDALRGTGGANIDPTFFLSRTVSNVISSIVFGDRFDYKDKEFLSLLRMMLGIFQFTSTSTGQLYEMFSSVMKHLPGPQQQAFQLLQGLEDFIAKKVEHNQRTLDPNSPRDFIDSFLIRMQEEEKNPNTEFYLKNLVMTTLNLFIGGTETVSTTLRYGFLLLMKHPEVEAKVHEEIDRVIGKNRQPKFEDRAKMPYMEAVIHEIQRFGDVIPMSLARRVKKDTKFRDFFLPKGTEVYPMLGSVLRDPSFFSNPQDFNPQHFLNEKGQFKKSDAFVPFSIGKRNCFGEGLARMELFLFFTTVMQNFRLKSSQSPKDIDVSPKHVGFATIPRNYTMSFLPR
Experimental: as §1

CYP2E1 = target: T5, CYP2E1 (Homo sapiens, UniProt P05181); assay: CYP2E1 inhibition (chlorzoxazone 6-hydroxylase) in human liver microsomes, substrate cocktail LC-MS/MS
T5 construct: the incubation mixtures containing pooled HLMs (0.25 mg/mL, H2630, Xenotech); tissue Xenotech H2630; host or cells: pooled human liver microsomes
Experimental: as §1

T5 sequence (P05181 whole entry): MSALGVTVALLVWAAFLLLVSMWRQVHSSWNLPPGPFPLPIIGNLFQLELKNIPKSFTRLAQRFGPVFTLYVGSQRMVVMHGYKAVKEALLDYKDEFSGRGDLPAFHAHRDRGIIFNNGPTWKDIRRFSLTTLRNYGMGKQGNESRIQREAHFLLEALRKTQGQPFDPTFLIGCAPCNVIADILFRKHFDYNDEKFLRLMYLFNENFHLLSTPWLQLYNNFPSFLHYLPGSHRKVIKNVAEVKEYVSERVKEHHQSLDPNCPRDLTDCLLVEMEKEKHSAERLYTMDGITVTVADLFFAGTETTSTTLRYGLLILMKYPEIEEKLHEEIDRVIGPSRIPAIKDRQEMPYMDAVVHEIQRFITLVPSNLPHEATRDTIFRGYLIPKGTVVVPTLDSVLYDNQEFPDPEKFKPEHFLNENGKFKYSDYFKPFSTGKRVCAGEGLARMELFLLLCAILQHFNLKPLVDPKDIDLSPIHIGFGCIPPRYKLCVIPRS
T2 sequence (P33261 whole entry): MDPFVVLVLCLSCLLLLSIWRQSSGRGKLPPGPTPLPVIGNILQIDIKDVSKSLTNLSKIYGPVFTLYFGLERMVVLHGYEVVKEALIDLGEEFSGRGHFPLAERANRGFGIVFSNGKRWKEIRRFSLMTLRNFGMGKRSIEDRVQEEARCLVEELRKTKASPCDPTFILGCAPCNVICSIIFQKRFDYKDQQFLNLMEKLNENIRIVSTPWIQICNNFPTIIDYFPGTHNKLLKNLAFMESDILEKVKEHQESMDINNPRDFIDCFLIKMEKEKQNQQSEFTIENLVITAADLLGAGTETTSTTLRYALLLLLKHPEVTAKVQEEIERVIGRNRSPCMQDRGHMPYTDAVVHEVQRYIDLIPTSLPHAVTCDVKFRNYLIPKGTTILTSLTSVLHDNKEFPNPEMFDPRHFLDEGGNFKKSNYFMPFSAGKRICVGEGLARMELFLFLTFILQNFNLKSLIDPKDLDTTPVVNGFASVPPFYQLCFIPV
T1 sequence (P10635 whole entry): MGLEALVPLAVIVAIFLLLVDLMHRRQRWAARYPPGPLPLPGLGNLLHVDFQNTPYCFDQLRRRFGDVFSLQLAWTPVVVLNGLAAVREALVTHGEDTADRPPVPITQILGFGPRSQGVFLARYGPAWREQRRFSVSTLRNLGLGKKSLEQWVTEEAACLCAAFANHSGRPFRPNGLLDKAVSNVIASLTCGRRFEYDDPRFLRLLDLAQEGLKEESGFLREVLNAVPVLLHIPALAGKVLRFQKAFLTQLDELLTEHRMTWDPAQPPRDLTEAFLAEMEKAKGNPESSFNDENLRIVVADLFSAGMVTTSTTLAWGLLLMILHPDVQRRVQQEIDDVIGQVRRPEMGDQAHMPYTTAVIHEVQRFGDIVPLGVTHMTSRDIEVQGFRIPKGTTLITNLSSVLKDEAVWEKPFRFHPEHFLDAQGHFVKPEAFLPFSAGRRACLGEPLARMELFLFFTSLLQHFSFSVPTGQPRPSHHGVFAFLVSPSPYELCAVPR

Q: How did the IC50 (CYP2D6) turn out when `COc1ccc(C(=C2C=CC(=O)C=C2)c2c(-c3ccc(O)cc3)ccc(CO)c2C#Cc2ccc(O)cc2)cc1` [Selaginellin M] was run?
A: 6.8 µM

Q: And the IC50 (CYP2C19)?
A: 16.1 µM

Q: And the IC50 at 15 min (CYP3A)?
A: > 50 µM

Q: And the IC50 (UGT1A3)?
A: 3.5 µM

Q: And the IC50 (CYP2A6)?
A: > 50 µM

Q: What about the IC50 (CYP2E1) of the same compound?
A: > 50 µM

Q: What does the source list for `O=C1C=CC(=C(c2ccc(O)cc2)c2c(-c3ccc(O)cc3)ccc(CO)c2C#Cc2ccc(O)cc2)C=C1` [Selaginellin]?
A: IC50 (CYP2D6): 5.8 µM; IC50 (CYP2C19): 10 µM; IC50 at 15 min (CYP3A; pooled HLMs 0.25 mg/mL, midazolam 5.0 μM, read-out: IC50 P450 isoform 3A): 11.7 µM; IC50 (UGT1A3): 4.7 µM; IC50 (CYP2A6): > 50 µM; IC50 (CYP2E1): 38.5 µM
